Key:
[1] = system: HCT116 human colon carcinoma xenograft with null p53 (HCT116 p53−/−); assay: HCT116 p53-/- xenograft, single agent and combination with cisplatin or vincristine; type: in vivo, female athymic nude mice; conditions: for % TGD (tumor growth delay) / time to study endpoint (TTE): endpoint tumor volume of 1000 mm^3, CROMOC36 as single agent or in combination; for time to study endpoint (TTE): control Day 23; for tumor growth inhibition: single-agent reference, q7dx5 (CDDP 4 mg/kg, VCR 2 mg/kg)
Experimental: A study was conducted to evaluate the efficacy and tolerability of CROMOC36 against an HCT116 human colon carcinoma xenograft model with null p53 (HCT116 p53−/−) in female athymic nude mice. CROMOC36 was administered subcutaneously (s.c.) three times at intervals of two weeks (q14dx3) as a single agent or in combination with cisplatin (CDDP) at 4 mg/kg or vincristine (VCR) at 2 mg/kg which were both administered five times at intervals of one week (q7dx5). CROMOC36 was tested at 32 mg/kg or using a decreasing dosage of 32-16-16 mg/kg. CDDP and VCR were also administered as single agents to allow comparison of the efficacy of CROMOC36 with commonly used anticancer drugs. The dose and schedule of CDDP and VCR treatments remained the same when tested as single agents or in combination with CROMOC36. […] Efficacy was also evaluated by measuring the tumor growth delay (TGD) and the number of regression responses.

[2] = system: murine Lewis lung carcinoma; assay: Lewis lung carcinoma (LLC) model, primary tumor growth and metastasis
Experimental: The efficacy of CROMOC36 on the Lewis lung carcinoma (LLC) model, was selected for testing the activity of CROMOC36 against primary tumor growth and metastasis formation. CROMOC36 was tested as a single agent and in combination with Cyclophosphamide (CYPP). In addition, single-agent CYPP was used as a reference compound, allowing comparison of the efficacy of CROMOC36 with a commonly used antitumor agent (summarized in FIG. 9).

[3] = system: IMR32 human neuroblastoma xenograft; assay: IMR32 human neuroblastoma xenograft model; type: in vivo, mice; conditions: single agent, q14dx2; CROMOC36 32 mg/Kg s.c.; doxorubicin 8 mg/kg i.v.
Source text: FIG. 11: IMR32 s.c. implanted. Treatment on xenograft mice with advanced tumors (volume >50 mm^3). Variation in tumor volume expressed as percentage with respect to initial volume (day 0; designated as 100%). Final measurements for vehicle (PBS) and Doxorubicin groups were taken on day 42. For the remaining groups, final measurements were taken on day 63, the termination day of the experiment. Growth reduction compared to controls on day 42 (p<0.01).
The aim of this study was to assess the in vivo efficacy of CROMOC36 on a IMR32 human neuroblastoma xenograft model. CROMOC36 was administered subcutaneously (s.c.) at intervals of two weeks (q14dx2) at two different doses (32 mg/Kg) and also in combination with doxorubicin administered intravenously (i.v.) (32/kg CROMOC36+4+4 mg/Kg doxorubicin, s.c and i.v., q14dx2). Doxorubicin was also used alone as a reference compound (8 mg/kg, i.v., q14dx2). Vehicle was PBS.

[4] = system: M5076 ovarian reticulum sarcoma tumor cell line; assay: M5076 artificial hepatic metastasis model, i.v. route; conditions: CROMOC36 16 mg/kg i.v. q7dx3; Doxorubicin 6 mg/kg q4dx3 (MTD)
[5] = system: Human hepatocellular carcinoma cell lines; assay: Monolayer assay, human hepatocellular carcinoma cell lines, 96h treatment (geomean of three lines); type: cell-based; conditions: Homo sapiens; three HCC cell lines, 96h treatment
Experimental: (§1) Monolayer Assay Propidium Iodid (PI). Cells were harvested from exponential phase cultures, counted and depending on the cell line 3.000 to 20.000 cells were plated in 96-well flat-bottom microtiter plates After a 24 h recovery period to allow cells to resume exponential growth, 10 μl of culture medium (four control wells/plate) or culture medium with the test compound were added by a liquid handling robotic system and treatment continued for four days. Compounds were applied in half-log increments at 10 concentrations in duplicate. Three independent experiments were performed. Cells were then washed with 200 μl PBS to remove dead cells followed by addition of 200 μl of a solution containing 7 μg/ml propidium iodide (PI) and 0.1% (v/v) Triton X-100. After an incubation period of 1-2 h at room temperature, fluorescence (FU) was measured using the Cytofluor 4000 microplate reader (excitation λ=530 nm, emission λ=620 nm) to quantify the amount of attached viable cells. Concentrations required for 50% inhibition of cell growth (IC50) were calculated by non-linear regression (log[conc. of inhibitor]versus response (% T/C)) using the analysis software GraphPad Prism®, Prism 5 for windows, version 5.01 (GraphPad Software Inc., CA).
CROMOC36—in vitro activity Human hepatocellular carcinoma cell lines IC50 values of CROMOC36 and Sorafenib, 96h treatment. […] The individual results for CROMOC36 are included in FIG. 24. […] The individual results for Sorafenib are included in (FIG. 24).

[6] = system: LIXF 575L; assay: Monolayer assay, 96h treatment, LIXF 575L; type: cell-based, human; conditions: Homo sapiens
Experimental: as §1
(§2) CROMOC36—in vitro activity Human hepatocellular carcinoma cell lines IC50 values of CROMOC36 and Sorafenib, 96h treatment. […]

[7] = system: HEP3B; assay: Monolayer assay, 96h treatment, HEP3B; type: cell-based, human; conditions: Homo sapiens
Experimental: as §1, §2

[8] = system: HEPG2; assay: Monolayer assay, 96h treatment, HEPG2; type: cell-based, human; conditions: Homo sapiens; HEPG2, 96h treatment
Experimental: as §1, §2

[9] = system: human pancreatic tumor cell lines; assay: Propidium iodide based monolayer proliferation assay, panel of 13 human pancreatic tumor cell lines; conditions: Homo sapiens, 96 h; 13 pancreatic cell lines, four days treatment; read-out: geomean IC50
Experimental: as §1
CROMOC36—in vitro activity Human pancreatic carcinoma cell lines. The aim of this study was to investigate the antitumor activity of CROMOC36 in vitro on a panel of 13 human pancreatic tumor cell lines. Antitumor activity was assessed after four days of CROMOC36 treatment using a propidium iodide based monolayer proliferation assay. Up to four experiments were performed in each cell line, testing CROMOC36 at ten concentrations in half-log increments up to 1 μM. Taxol, an antitumor agent commonly used for the treatment of pancreatic cancer, was used as a reference compound and tested in half-log steps up to 0.3 μM.

[10] = system: Osteosarcoma (U2OS) cell; assay: Monolayer Sulphorhodamine B (SRB) staining assay, 72 hours, preCROMOC-DDM fusion molecules; type: cell-based, human; conditions: CPP fused to preCROMOC
Experimental: Cells were harvested from exponential phase cultures, and depending on the cell line 10.000 to 30.000 cells were plated in 96-well flat-bottom microtiter plates. After a 24 h recovery period to allow cells to resume exponential growth, supernatant was discarded and 100 μl of culture medium (eight control wells/plate) or culture medium with the test compound were added by a liquid handling robotic system (Microlab® Starlet, Hamilton) and treatment continued for 72 hrs. Compounds were applied at 9 concentrations eight wells/concentration). At least three independent experiments were performed. For SRB staining, cells were fixed with SRB01 for 1h at 4° C. (final concentration of TCA=10%) washed with a plate washer (Hydroflex, Tecan©) for five times with H2O; and stained with 100 μl of SRB02 at room temperature for 10 min following 4 washes in SRB03 and finally 100 μl of developer solution SRB04 for 5 minutes with shaking. Optical density was assessed using a plate-reader (Sunrise, Tecan©) at 540 nm. Concentrations required for 50% inhibition of cell growth (IC50) were calculated by non-linear regression (log[conc. of inhibitor] versus response (% T/C)) using the analysis software GraphPad Prism®, Prism 5 for windows, version 5.01 (GraphPad Software Inc., CA). (SRB Buffers FIG. 25).

[11] = system: human colon carcinoma with null p53 (HCT116 p53−/−) xenograft; assay: HCT116 p53-/- xenograft, CROMOC36 versus nuclease impaired CROMOC60; type: in vivo, mouse; conditions: s.c. 4 mg/kg on days 0, 1, 2, 3, 6, 7, 8, 9, 10, 20, 22, 24
Experimental: FIG. 7: HCT116 p53−/− human colon carcinoma xenograft. Treatment on advanced tumors (volume >50 mm^3). Dose: CROMOC36 4 mg/kg; CROMOC60 4 mg/kg. Treatment: s.c. administration on day 0, 1, 2, 3, 6, 7, 8, 9, 10, 20, 22, 24.
A study was conducted to test the antitumor efficacy of CROMOC36 on an advanced human colon carcinoma with null p53 (HCT116 p53−/−) xenograft model and compare it to a vehicle or a nuclease impaired version CROMOC60 treatment group. CROMOC60 is no more catalytically active as a nuclease but is able to be transported to the nucleus of a cell. This study was also designed to proof that the active principle of the tumor growth inhibiting activity of CROMOC is the nuclease activity in vivo. CROMOC36 and CROMOC60 were both administered subcutaneously (s.c.) at 4 mg/kg dose on the days 0, 1, 2, 3, 6, 7, 8, 9, 10, 20, 22, 24. […] This also proofs that CROMOC36 can serve as a valid DNA DSB reagent.

[NH2][Pt]([NH2])([Cl])[Cl] [CDDP, cisplatin, reference compound]
% TGD (tumor growth delay) [1]: 48% | time to study endpoint (TTE) [1]: 34 days | tumor growth inhibition [1]: 47.2%

O=P1(N(CCCl)CCCl)NCCCO1 (centres unmarked) [CYPP, Cyclophosphamide, reference compound]
inhibition of number of metastases ([2]; CYPP single agent, 180 mg/kg): 62% | tumor growth inhibition (TI), primary tumor ([2]; single agent, CROMOC36 s.c. q2dx5): 78.6%

COc1cccc2c1C(=O)c1c(O)c3c(c(O)c1C2=O)C[C@@](O)(C(=O)CO)C[C@@H]3O[C@H]1C[C@H](N)[C@H](O)[C@H](C)O1 [Doxorubicin, reference compound]
tumor growth inhibition (TGI) compared to controls [3]: 10% | % ILS (mean survival time versus control group) [4]: 32%

CNC(=O)c1cc(Oc2ccc(NC(=O)Nc3ccc(Cl)c(C(F)(F)F)c3)cc2)ccn1 [Sorafenib, reference compound]
IC50 [5]: 4.68 µM | IC50 [6]: 6.07 µM | IC50 [7]: 2.83 µM | IC50 [8]: 5.97 µM

CC(=O)O[C@H]1C(=O)[C@@]2(C)[C@H]([C@H](OC(=O)c3ccccc3)[C@]3(O)C[C@H](OC(=O)[C@H](O)[C@@H](NC(=O)c4ccccc4)c4ccccc4)C(C)=C1C3(C)C)[C@]1(OC(C)=O)CO[C@@H]1C[C@@H]2O [Taxol, reference compound]
IC50 [9]: 0.00199 µM

CC[C@]1(O)C[C@H]2CN(CCc3c([nH]c4ccccc34)[C@@](C(=O)OC)(c3cc4c(cc3OC)N(C=O)[C@H]3[C@@](O)(C(=O)OC)[C@H](OC(C)=O)[C@]5(CC)C=CCN6CC[C@]43[C@@H]65)C2)C1 [VCR, vincristine, reference compound]
% TGD (tumor growth delay) [1]: 52% | time to study endpoint (TTE) [1]: 35 days | tumor growth inhibition [1]: 45.4%

GNSGSGKKKKKGKGSGLGSGKKKDPLGSGLGSGKKKKKGKGSGLGSGKKKDPLGST (peptide, DDM36)
activity in the SRB assay compared with TAT, Pentratin, and Transportan [10]: orders of magnitude higher activity

B1: CROMOC60: nuclease impaired version; no more catalytically active as a nuclease but able to be transported to the nucleus (protein)
chain: MSHPDLNKLLELWPHIQEYQDLALKHGINDIFQDNGGKLLQVLLITGLTVLPGREGNDAVDNAGQEYELKSINIDLTAGFSTHHHMNPVIIAKYRQVPWIFAIYRGIAIEAIYRLEPKDLEFYYDKWERKWYSDGHKDINNPKIPVKYVMEHGTKIYGSGGSGGSSHPDLNKLLELWPHIQEYQDLALKHGINDIFQDNGGKLLQVLLITGLTVLPGREGNDAVDNAGQEYELKSINIDLTAGFSTHHHMNPVIIAKYRQVPWIFAIYRGIAIEAIYRLEPKDLEFYYDKWERKWYSDGHKDINNPKIPVKYVMEHGTKIYGNSGSGKKKKKGKGSGLGSGKKKDPLGSGLGSGKKKKKGKGSGLGSGKKKDPLGST
modifications: peptide, CROMOC60
progression of HCT116 p53−/− human colon carcinoma as compared to vehicle control [11]: not

— patent US20250295796A1, “CELL PENETRATING POLYPEPTIDES (CPPS) AND THEIR USE IN HUMAN THERAPY” (RDP PHARMA AG, priority 2021, published 2025)
